Assay results as given in patent US9809574B2, “Isoindoline or isoquinoline compounds, a process for their preparation and pharmaceutical compositions containing them” (LES LABORATOIRES SERVIER, priority 2013, dated 2017).
Counter-ions that a name gives are not always drawn.

Assays:
[1] = molecular target: Bcl-2 protein (histag-Bcl-2, UniProtKB P10415) (Homo sapiens (Human), UniProt P10415); assay: Inhibition of Bcl-2 by the fluorescence polarisation technique; format: binding; details: fluorescence polarisation test; incubation for 2 hours; read-out: IC50 (nM) Bcl-2 FP
Text: For partial inhibitors, the percentage fluorescence polarisation inhibition for a given concentration of the test compound is indicated.

[2] = test system: RS4; 11 leukaemia cell line; assay: In vitro cytotoxicity, Microculture Tetrazolium Assay (MTT); format: cell-based; details: Homo sapiens, 11 cells exposed for 48 hours
Description: The cytotoxicity studies were carried out on the RS4; 11 leukaemia cell line and on H146 small Cell Lung Carcinoma cell line. The cells are distributed onto microplates and exposed to the test compounds for 48 hours. The cell viability is then quantified by a colorimetric assay, the Microculture Tetrazolium Assay (Cancer Res., 1987, 47, 939-942).

Bcl-2 protein, sequence (P10415 whole entry): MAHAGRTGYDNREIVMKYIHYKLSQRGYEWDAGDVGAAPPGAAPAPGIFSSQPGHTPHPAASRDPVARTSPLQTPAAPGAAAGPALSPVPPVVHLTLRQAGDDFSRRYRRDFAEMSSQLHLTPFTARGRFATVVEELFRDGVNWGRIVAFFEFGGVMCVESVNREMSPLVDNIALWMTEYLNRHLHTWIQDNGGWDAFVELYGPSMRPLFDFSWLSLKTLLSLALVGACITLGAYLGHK

Structure (SMILES)	IC50 [1]	IC50 [2]
CN(C(=O)c1cc(-c2cc3c(cc2C(=O)N2Cc4ccccc4C[C@H]2CN2CCOCC2)CN(C(=O)Cc2ccccc2)C3)n2c1CCCC2)c1ccc(O)cc1 [Example 8, N-(4-Hydroxyphenyl)-N-methyl-3-{6-[(3S)-3-(morpholin-4-ylmethyl)-1,2,3,4-tetrahydroisoquinoline-2-carbonyl]-2-(2-phenylacetyl)-2,3-dihydro-1H-isoindol-5-yl}-5,6,7,8-tetrahydroindolizine-1-carboxamide; hydrochloride salt]	7.3 nM	98 nM
CC(=O)N(C)c1ccc(OC(=O)N2CCc3cc(-c4cc(C(=O)N(C)c5ccc(O)cc5)c(C)n4C)c(C(=O)N4Cc5ccccc5C[C@H]4CN4CCOCC4)cc3C2)cc1 [Example 803, 4-(N-Methylacetamido)phenyl 6-{4-[(4-hydroxyphenyl)(methyl)carbamoyl]-1,5-dimethyl-1H-pyrrol-2-yl}-7-[(3S)-3-(morpholin-4-ylmethyl)-1,2,3,4-tetrahydroisoquinoline-2-carbonyl]-1,2,3,4-tetrahydroisoquinoline-2-carboxylate]	4.6 nM	37 nM
C[C@@H]1Cc2ccccc2CN1C(=O)c1cc2c(cc1-c1cc(C(=O)N(C)c3ccc(O)cc3)c3n1CCCC3)CN(Cc1ccccn1)C2 [Example 28, N-(4-Hydroxyphenyl)-N-methyl-3-{6-[(3R)-3-methyl-1,2,3,4-tetrahydroisoquinoline-2-carbonyl]-2-(pyridin-2-ylmethyl)-2,3-dihydro-1H-isoindol-5-yl}-5,6,7,8-tetrahydroindolizine-1-carboxamide]	23 nM	> 150 nM
C[C@@H]1Cc2ccccc2CN1C(=O)c1cc2c(cc1-c1cc(C(=O)N(C)c3ccc(O)cc3)c3n1CCCC3)CCN(C(=O)Cc1ccc(CN3CCOCC3)cc1)C2 [Example 129, N-(4-Hydroxyphenyl)-N-methyl-3-{7-[(3R)-3-methyl-1,2,3,4-tetrahydroisoquinoline-2-carbonyl]-2-{2-[4-(morpholin-4-ylmethyl)phenyl]acetyl}-1,2,3,4-tetrahydroisoquinolin-6-yl}-5,6,7,8-tetrahydroindolizine-1-carboxamide]	3.3 nM	39 nM
Cc1c(C(=O)N(C)c2ccc(O)cc2)cc(-c2cc3c(cc2C(=O)N2Cc4ccccc4C[C@H]2CCCN2CCOCC2)CN(C(=O)Oc2ccccc2)CC3)n1C [Example 808, Phenyl 6-{4-[(4-hydroxyphenyl)(methyl)carbamoyl]-1,5-dimethyl-1H-pyrrol-2-yl}-7-[(3R)-3-[3-(morpholin-4-yl)propyl]-1,2,3,4-tetrahydroisoquinoline-2-carbonyl]-1,2,3,4-tetrahydroisoquinoline-2-carboxylate]	2.7 nM	1.6 nM
Cc1c(C(=O)N(C)c2ccc(O)cc2)cc(-c2cc3c(cc2C(=O)N2Cc4ccccc4C[C@H]2C)CN(C(=O)Oc2ccccc2OCCN(C)C)CC3)n1C [Example 392, 2-[2-(Dimethylamino)ethoxy]phenyl 6-{4-[(4-hydroxyphenyl) (methyl)carbamoyl]-1,5-dimethyl-1H-pyrrol-2-yl}-7-[(3R)-3-methyl-1,2,3,4-tetrahydroisoquinoline-2-carbonyl]-1,2,3,4-tetrahydroisoquinoline-2-carboxylate]	2 nM	14 nM
Cc1c(C(=O)N(C)c2ccc(O)cc2)cc(-c2cc3c(cc2C(=O)N2Cc4ccccc4C[C@H]2CN2CCOCC2)CN(C(=O)Oc2ccc4cc[nH]c4c2)CC3)n1C [Example 575, 1H-Indol-6-yl 6-{4-[(4-hydroxyphenyl)(methyl)carbamoyl]-1,5-dimethyl-1H-pyrrol-2-yl}-7-[(3S)-3-(morpholin-4-ylmethyl)-1,2,3,4-tetrahydroisoquinoline-2-carbonyl]-1,2,3,4-tetrahydroisoquinoline-2-carboxylate]	6.3 nM	12 nM

Now from value to compound, other results behind:

IC50 [1]	Structure (SMILES)	IC50 [2]
3.2 nM	Cc1c(C(=O)N(C)c2ccc(O)cc2)cc(-c2cc3c(cc2C(=O)N2Cc4ccccc4C[C@H]2C)CN(C(=O)Oc2ccc(C#N)cc2)CC3)n1C [Example 147, 4-Cyanophenyl 6-{4-[(4-hydroxyphenyl)(methyl)carbamoyl]-1,5-dimethyl-1H-pyrrol-2-yl}-7-[(3R)-3-methyl-1,2,3,4-tetrahydroisoquinoline-2-carbonyl]-1,2,3,4-tetrahydroisoquinoline-2-carboxylate]	2.3 nM
2.7 nM	C[C@@H]1Cc2ccccc2CN1C(=O)c1cc2c(cc1-c1cc(C(=O)N(C)c3ccc(O)cc3)c3n1CCCC3)CCN(C(=O)Cc1ccc(NCCN(C)C)cc1)C2 [Example 108, 3-{2-[2-(4-{[2-(Dimethylamino)ethyl]amino}phenyl)acetyl]-7-[(3R)-3-methyl-1,2,3,4-tetrahydroisoquinoline-2-carbonyl]-1,2,3,4-tetrahydroisoquinolin-6-yl}-N-(4-hydroxyphenyl)-N-methyl-5,6,7,8-tetrahydroindolizine-1-carboxamide hydrochloride]	15 nM
4.9 nM	C[C@@H]1Cc2ccccc2CN1C(=O)c1cc2c(cc1-c1cc(C(=O)N(C)c3ccc(O)cc3)c3n1CCCC3)CCN(C(=O)N1CC(c3ccccc3)C1)C2 [Example 84, N-(4-Hydroxyphenyl)-N-methyl-3-{7-[(3R)-3-methyl-1,2,3,4-tetrahydroisoquinoline-2-carbonyl]-2-(3-phenylazetidine-1-carbonyl)-1,2,3,4-tetrahydroisoquinolin-6-yl}-5,6,7,8-tetrahydroindolizine-1-carboxamide]	33 nM
3.5 nM	Cc1ccc(OC(=O)N2Cc3cc(C(=O)N4Cc5ccccc5C[C@H]4C)c(-c4cc(C(=O)N(C)c5ccc(O)cc5)c(C)n4C)cc3C2)cc1 [Example 107, 4-Methylphenyl 5-{4-[(4-hydroxyphenyl)(methyl)carbamoyl]-1,5-dimethyl-1H-pyrrol-2-yl}-6-[(3R)-3-methyl-1,2,3,4-tetrahydroisoquinoline-2-carbonyl]-2,3-dihydro-1H-isoindole-2-carboxylate]	6.9 nM
27 nM	CCCCN(CCCC)C(=O)c1cc(-c2cc3c(cc2C(=O)N2Cc4ccccc4C[C@H]2C)CN(C(=O)Oc2ccccc2)CC3)n(C)c1C [Example 163, Phenyl 6-[4-(dibutylcarbamoyl)-1,5-dimethyl-1H-pyrrol-2-yl]-7-[(3R)-3-methyl-1,2,3,4-tetrahydroisoquinoline-2-carbonyl]-1,2,3,4-tetrahydroisoquinoline-2-carboxylate]	> 150 nM
20 nM	C[C@@H]1Cc2ccccc2CN1C(=O)c1cc2c(cc1-c1cc(C(=O)N(C)c3ccc(O)cc3)c3n1CCCC3)CN(C(=O)C1CC1)C2 [Example 20, 3-{2-Cyclopropanecarbonyl-6-[(3R)-3-methyl-1,2,3,4-tetrahydroisoquinoline-2-carbonyl]-2,3-dihydro-1H-isoindol-5-yl}-N-(4-hydroxyphenyl)-N-methyl-5,6,7,8-tetrahydroindolizine-1-carboxamide]	> 150 nM
6.7 nM	COc1cccc(/C=C/C(=O)N2CCc3cc(-c4cc(C(=O)N(C)c5ccc(O)cc5)c(C)n4C)c(C(=O)N4Cc5ccccc5C[C@H]4CN4CCOCC4)cc3C2)c1 [Example 136, N-(4-Hydroxyphenyl)-5-{2-[(2E)-3-(3-methoxyphenyl)prop-2-enoyl]-7-[(3S)-3-(morpholin-4-ylmethyl)-1,2,3,4-tetrahydroisoquinoline-2-carbonyl]-1,2,3,4-tetrahydroisoquinolin-6-yl}-N,1,2-trimethyl-1H-pyrrole-3-carboxamide]	24 nM
7.3 nM	Cc1c(C(=O)N(C)c2ccc(O)cc2)cc(-c2cc3c(cc2C(=O)N2Cc4ccccc4C[C@H]2C)CN(C(=O)Oc2ccc(Cl)cc2)C3)n1C [Example 105, 4-Chlorophenyl 5-{4-[(4-hydroxyphenyl)(methyl)carbamoyl]-1,5-dimethyl-1H-pyrrol-2-yl}-6-[(3R)-3-methyl-1,2,3,4-tetrahydroisoquinoline-2-carbonyl]-2,3-dihydro-1H-isoindole-2-carboxylate]	31 nM
6.8 nM	CN(C(=O)c1cc(-c2cc3c(cc2C(=O)N2Cc4ccccc4C[C@H]2CN2CCOCC2)CN(C(=O)COc2ccccc2)C3)n2c1CCCC2)c1ccc(O)cc1 [Example 156, N-(4-Hydroxyphenyl)-N-methyl-3-{6-[(3S)-3-(morpholin-4-ylmethyl)-1,2,3,4-tetrahydroisoquinoline-2-carbonyl]-2-(2-phenoxyacetyl)-2,3-dihydro-1H-isoindol-5-yl}-5,6,7,8-tetrahydroindolizine-1-carboxamide]	121 nM
5.3 nM	Cc1c(C(=O)N(C)c2ccccc2)cc(-c2cc3c(cc2C(=O)N2Cc4ccccc4C[C@H]2CN2CCOCC2)CN(C(=O)Cc2ccc(C#N)cc2)CC3)n1C [Example 151, 5-{2-[2-(4-Cyanophenyl)acetyl]-7-[(3S)-3-(morpholin-4-ylmethyl)-1,2,3,4-tetrahydroisoquinoline-2-carbonyl]-1,2,3,4-tetrahydroisoquinolin-6-yl}-N,1,2-trimethyl-N-phenyl-1H-pyrrole-3-carboxamide]	19 nM
6.5 nM	C[C@@H]1Cc2ccccc2CN1C(=O)c1cc2c(cc1-c1cc(C(=O)N(C)c3ccc(O)cc3)c3ccccn13)CN(C(=O)COc1ccccc1)C2 [Example 167, N-(4-Hydroxyphenyl)-N-methyl-3-{6-[(3R)-3-methyl-1,2,3,4-tetrahydroisoquinoline-2-carbonyl]-2-(2-phenoxyacetyl)-2,3-dihydro-1H-isoindol-5-yl}indolizine-1-carboxamide]	20 nM
